From ChEMBL document CHEMBL1141769, “Pursaethosides A-E, triterpene saponins from Entada pursaetha” (J Nat Prod, 2005) come the findings set out here.

For orientation: IC50 means the concentration at which inhibition is half-maximal.

The subject of one test is HT-29. In words: Cytotoxicity against human HT-29 cells after 96 hrs by MTT assay. The class given is functional, cell-based. Particulars: HT-29, 96 h. (Formazan colour is commonly taken as a measure of viable cells.)
A further test concerns HCT-116. In words: Cytotoxicity against human HCT116 cells after 96 hrs by MTT assay. The class given is functional, cell-based. The conditions noted are these: HCT-116, 96 h.

Take `CC(=O)N[C@H]1[C@H](O[C@H]2CC[C@]3(C)[C@H]4CC=C5[C@@H]6CC(C)(C)CC[C@]6(C(=O)O[C@@H]6O[C@H](CO)[C@@H](O)[C@H](O)[C@H]6O[C@@H]6OC[C@](O)(CO)[C@H]6O)[C@H](O)C[C@@]5(C)[C@]4(C)CC[C@H]3C2(C)C)O[C@H](CO[C@@H]2OC[C@H](O)[C@H](O)[C@H]2O)[C@@H](O)[C@@H]1O[C@@H]1OC[C@@H](O)[C@H](O)[C@H]1O` [PURSAETHOSIDE B]: the IC50 in the test with HT-29 and with HCT-116 was more than 100 µg/mL in each case.
Turning to `CC(=O)N[C@H]1[C@H](O[C@H]2CC[C@]3(C)[C@H]4CC=C5[C@@H]6CC(C)(C)CC[C@]6(C(=O)O[C@@H]6O[C@H](CO)[C@@H](O)[C@H](O)[C@H]6O[C@@H]6OC[C@](O)(CO)[C@H]6O)[C@H](O)[C@H](O)[C@@]5(C)[C@]4(C)CC[C@H]3C2(C)C)O[C@H](CO[C@@H]2OC[C@H](O)[C@H](O)[C@H]2O)[C@@H](O)[C@@H]1O[C@@H]1OC[C@@H](O)[C@H](O)[C@H]1O` [PURSAETHOSIDE C], the IC50 in the test with HT-29 and in the test on HCT-116 was more than 100 µg/mL in each case.
